Data reported in PubChem BioAssay AID179 (DTP/NCI, 2004).
“And” between values parts separate entries of the source, which are not always exact repeats. Equal entries are not always repeated. The source made the active and inactive calls.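 The calls were made as follows: active = compounds giving half or more protection of infected cells from virus-caused growth loss, again on retest; inactive = the rest.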

Test system: CEM cells HIV-1 protection, formazan growth assay
Test: NCI AIDS Antiviral Assay
Conditions: for IC50: measured here: growth of uninfected CEM cells
Outline: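 Screen of anti-HIV-1 activity in human CEM cells using a formazan-based growth measurement at five drug concentrations. Hits with 50% or greater protection were repeated, and confirmation required reproducible complete protection.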

Structure (SMILES)	EC50	IC50	outcome
O=C1CC=CN1CCn1c(=S)[nH]c2ccccc21	> 501 µM	> 501 µM	–
CCCCCCCCCCCCCC(=O)OCC1OC(OC)C(NC(=O)N(CCCl)N=O)C(O)C1O (stereo unspecified)	> 18.6 µM	12 µM	–
C=C=C(CCC(=O)c1ccccc1)S(=O)(=O)c1ccccc1	> 200 µM	11 µM	–
CC(=O)OC1CCn2nnc(COC(=O)NC(C)C)c21 (stereo unspecified)	–	–	inactive
COC(=O)/C=C1\SC2(OC1=Nc1ccccc1)C1CC3CC(C1)CC2C3 (stereo unspecified)	> 200 µM	> 200 µM	–
CC(C)c1ccccc1SCc1cc(=O)cc(CSc2ccccc2C(C)C)o1	> 200 µM	11.7 µM	–
CC12CCC(=O)N1c1cnccc1N2 (stereo unspecified)	> 200 µM	> 200 µM	–
COc1ccc(N2C(=O)/C(=C\c3ccc(N(CCC#N)CCC#N)cc3)N=C2COc2ccccc2)cc1	> 26.9 µM	> 26.9 µM	–
CC(C)(C)C1CCC2(N3CCOCC3)C(C#N)CC2C1 (stereo unspecified)	> 794 µM	89.1 µM and > 794 µM	–
O=C1c2ccccc2C(=O)N1C/C=N/NS(=O)(=O)c1ccc(F)cc1	> 363 µM	> 363 µM	–
Cn1c(O)c(N=Nc2ccccc2[N+](=O)[O-])c2ccccc21	> 200 µM	> 200 µM	–
OCC(O)C1[O][Sb][O]C1C(O)CO (stereo unspecified)	> 200 µM	> 200 µM	–
N#CC1=C2SCCN2C(=O)C(C#N)C12CCCCC2 (stereo unspecified)	> 200 µM	> 200 µM	–
Cc1ccc(S(=O)(=O)OC2C(C)OCOC3COCOC32)cc1 (stereo unspecified)	> 145 µM	> 145 µM	–
O=C(c1cccs1)N(C(=S)N1CCN(c2ccccn2)CC1)c1ccccc1	> 17.8 µM	> 17.8 µM	–
COC1(C)CCC(OS(C)(=O)=O)CO1 (stereo unspecified)	> 200 µM	> 200 µM	–
CC(CN(C)C)/C(=N\Nc1ccccc1)c1ccccc1 (stereo unspecified)	–	–	inactive
COc1cccc2c(=O)oc(-c3ccc(C(C)(C)C)cc3)nc12	> 200 µM	64.6 µM	–
O=c1/c(=C/c2cccc3ccccc23)sc2nc3ccccc3n12	> 30.2 µM	> 30.2 µM	–
CC(C)(SSC(C)(C)C1NC(=O)NC1=O)C1NC(=O)NC1=O (stereo unspecified)	> 200 µM	120 µM	–
O=S(=O)(c1ccccc1)N1CC2(CN(S(=O)(=O)c3ccccc3)c3ccccc31)CN(S(=O)(=O)c1ccccc1)c1ccccc1N(S(=O)(=O)c1ccccc1)C2	> 200 µM	> 200 µM	–
C/C=C/C=C\C=C/C(O)C(C)C(CCC(C)C1OC(=O)C=CC1C)OP(=O)(O)O (stereo unspecified)	> 2 µM	0.129 µM	–
N#CN=C(N)NC(=O)c1ccccc1	–	–	inactive

Structure (SMILES)	EC50	IC50	outcome
Oc1[nH]c2ccccc2c1N=NC(=S)Nc1ccc(Cl)cc1	> 200 µM	24.5 µM	–
COc1cc(N(C)C)ccc1/C=C\c1ccnc2ccccc12	> 200 µM	13.5 µM	–
COc1ccc(-n2c(N)c(C#N)c(C#N)c2-c2cccc([N+](=O)[O-])c2)cc1	> 200 µM	186 µM	–
COc1ccc2nc3ccc(OC)cc3c(S(=O)(=O)Cc3ccc([N+](=O)[O-])cc3)c2c1	> 200 µM	> 200 µM	–
Cc1cccc(O)c1-c1nnc(CCCCCCCCc2nnc(-c3c(C)cccc3O)n2N)n1N	> 200 µM	2.95 µM	–
CCOC(=O)NP(=O)(N1CC1(C)C)N1CC1(C)C (stereo unspecified)	123 µM	> 200 µM	–
N/N=C1/C2CN3CCN(C2)CC1(c1ccc([N+](=O)[O-])cc1)C3	> 200 µM	> 200 µM	–
C#CCN(N=O)C(=O)NC(CCCNC(=O)OCc1ccccc1)C(=O)OCc1ccccc1 (stereo unspecified)	> 28.8 µM	> 28.8 µM	–
O=C(/C=C/c1ccc2c(c1)OCO2)c1cc(Cl)cc(Cl)c1O	–	–	inactive
Br/C=C(\Br)C[N+]12CN3CN(CN(C3)C1)C2	> 200 µM	110 µM	–
CCOC(=O)C(=Cc1cccc(OC)c1)C(=O)OCC	> 129 µM	14.8 µM	–
OC(CN1CCC(c2ccccc2)CC1)c1ccc(Br)cc1 (stereo unspecified)	> 18.2 µM	> 18.2 µM	–
O=C1C[C@@H]2[C@@H](C=CC23CCCC3)N1O	–	–	inactive
Cc1nc(OCc2ccccc2)c2ncn(CCO)c2n1	> 200 µM	> 200 µM	–
CCNC(=O)OCCCCC=C(c1cc(Cl)c(OC)c(C(=O)OC)c1)c1cc(Cl)c(OC)c(C(=O)OC)c1	> 200 µM	14.5 µM	–
CC(Cc1ccc(O)c(O)c1)C(C)Cc1ccc(O)c(O)c1 (stereo unspecified)	> 200 µM	8.91 µM	–
O=c1[nH]c2cc([N+](=O)[O-])ccc2nc1/C(=N\Nc1ccccc1)C(O)c1ccc2c(c1)OCO2 (stereo unspecified)	> 447 µM	214 µM	–
CN(C)C1C(=O)C(C(N)=O)=C(O)C2(O)C(=O)C3=C(O)c4c(O)cccc4C(C)(O)C3C(O)C12 (stereo unspecified)	> 263 µM	95.5 µM	–
Oc1ccc(I)c2cccnc12	> 182 µM	2.19 µM	–
CS(=O)(=O)Nc1ccc2c(c1)N(S(C)(=O)=O)CC2CCl (stereo unspecified)	> 200 µM	166 µM	–
CCN(CC)CCC1CCCCN1CC(=O)N1c2cc(Cl)ccc2NC(=O)CC1C (stereo unspecified)	> 200 µM	> 200 µM	–
CN1C2c3ccccc3C3C4c5ccccc5C(C31)C(C2[N+](=O)[O-])N4C (stereo unspecified)	> 43.7 µM	27.5 µM	–
CC[C@](O)(CC(=O)O[C@H]1C(=O)O[C@@H]2C[C@H]3C(C)=CC(=O)[C@@H](O)[C@]3(C)[C@H]3[C@@]4(O)OC[C@]32[C@@H]1[C@@H](C)[C@H]4O)C(C)C	> 0.2 µM	0.00363 µM	–

Structure (SMILES)	EC50	IC50	outcome
O=C(O)C1(C(O)c2ccccc2)SCCCS1 (stereo unspecified)	> 200 µM	> 200 µM	–
CCN(CC)C(=O)c1c(Cl)cc(N(CC)CC)oc1=O	> 832 µM	> 832 µM	–
COC(=O)C1=Cc2cc(OC)c(O)cc2[C@@H](c2ccc(O)c(OC)c2)[C@@H]1C(=O)OC	> 200 µM	77.6 µM	–
O=[N+]([O-])c1cccc2nc3ccccc3c(NCCC[N+]3([O-])CCOCC3)c12	> 2 µM	0.105 µM	–
O=C(/C=C/c1ccc(Cl)c(Cl)c1)CCN1CCN(CCC(=O)/C=C/c2ccc(Cl)c(Cl)c2)CC1	> 200 µM	1.91 µM	–
Cc1ccc(S(=O)(=O)Nn2c3c(cc(C#N)c2=O)CCC3)cc1	> 200 µM	> 200 µM	–
O=C(O)c1c2c(nc3ccccc13)CCCC2	> 398 µM	> 398 µM	–
CC(=O)NNc1nc(C)c(C(/C=C/c2ccccc2O)=N/N=C(N)N)s1	> 89.1 µM	> 89.1 µM	–
O=c1n(CC2CO2)c(=O)n(CC2CO2)c(=O)n1CC1CO1 (stereo unspecified)	> 832 µM	1.51 µM	–
O=c1cnn2c(n1)sc1ccc3ccccc3c12	> 50.1 µM	> 50.1 µM	–
Cc1ccc(C2CC(c3ccco3)=NN2c2ccccc2)o1 (stereo unspecified)	> 17.8 µM	> 17.8 µM	–
Nc1nc(-c2ccco2)cc(-c2ccco2)n1	> 115 µM	> 115 µM	–
N#CC(C#N)=CC=C1c2ccccc2Sc2ccccc21	> 18.2 µM	> 18.2 µM	–
CCCCCCCc1ccc(OC2OC(CO)C(O)C(O)C2O)cc1 (stereo unspecified)	> 126 µM	29.5 µM and 10.2 µM	–
COc1ccc(-c2c3c([nH]c(=S)c2C#N)CC(C)(C)CC3=O)cc1	–	–	inactive
Oc1cc(O)c2c(c1)O[C@H](c1cc(O)c(O)c(O)c1)[C@H](O)C2	> 200 µM	0.692 µM	–
CC(C)CCn1nc(N)c2nc3ccccc3nc21	> 200 µM	112 µM	–
O=C(NC12CC3CCC1CC(C3)C2)[C@@H]1CCCN1C(=O)OCc1ccccc1 (stereo partly specified)	–	–	inactive
Cc1[nH]c2nccn2c(=O)c1CCCl	> 200 µM	11.5 µM	–
N#CC1(c2nc3ccccc3o2)C(=O)C(=O)N(c2ccc(Cl)c(Cl)c2)C(=O)C1=O	> 302 µM	282 µM	–
CC(C)(C)C1=CP(=O)(c2ccccc2)C=C(C(C)(C)C)N1	> 200 µM	> 200 µM	–
O=C1OC(CC(=O)c2ccc(Cl)c(Cl)c2)C(Cl)=C1Cl (stereo unspecified)	> 75.9 µM	> 75.9 µM	–
COc1c(Cl)cc(C(=O)c2cc(Cl)c(OC)c(C(=O)O)c2)cc1C(=O)O	> 912 µM	> 912 µM	–

Structure (SMILES)	EC50	IC50	outcome
O=c1c2cc(Br)ccc2oc2ccc(Br)cc12	–	–	inactive
Cc1cn(C2CC(N)C(CN)O2)c(=O)[nH]c1=O (stereo unspecified)	> 200 µM	> 200 µM	–
CCOC(=O)/C=C/n1c2ccccc2c(=O)c2cc(OC)ccc21	> 22.4 µM	> 22.4 µM	–
CCOC(=O)c1nc2cc(C(F)(F)F)ccc2nc1Oc1ccc(C(=O)OC)cc1	> 200 µM	95.5 µM	–
CCOC(=O)Cn1c(=O)c2nc(SC)sc2n(-c2ccc(C)cc2)c1=S	> 200 µM	> 200 µM	–
CC(C)OP(=O)(OC(C)C)c1ccc2c(c1)OCCOCCOCCOCCO2	> 200 µM	> 200 µM	–
CSc1cnc2ccccc2c1Sc1cn(C)c2ccccc2c1=O	> 37.2 µM	31.6 µM	–
S=C(N/N=C(\c1ccccc1)c1ccccn1)NC1CCCCC1	> 200 µM	2.4 µM	–
CC1N(C)C(=O)OC12CCN(CCCC(=O)c1ccc(F)cc1)CC2 (stereo unspecified)	> 200 µM	> 200 µM	–
O=C(NCCCNC(=O)c1ccc2cc(O)ccc2c1)c1ccc2cc(O)ccc2c1	–	–	inactive
CC1C2=C(CN3C[C@H](C)CCC13)C1CC3C(C[C@@H](O)C4C[C@@H](O)CC[C@]34C)C1CC2 (stereo partly specified)	> 22.9 µM	> 22.9 µM	–
O=S(=O)(c1ccccc1)C(c1ccc2ccccc2n1)S(=O)(=O)c1ccccc1	> 200 µM	41.7 µM	–
COc1ccc(C(OCC2OC(n3cnc4c(=O)n(Cc5ccccc5[N+](=O)[O-])nnc43)C(O)C2O)(c2ccccc2)c2ccc(OC)cc2)cc1 (stereo unspecified)	–	–	inactive
CN(C)C=C1C(=O)c2ccccc2C1=O	> 35.5 µM	> 35.5 µM	–
CC1(C)CNC[C@@](C)(O)C(=O)[N-]C(C)(C)CNC[C@@](C)(O)C(=O)[N-]1.[Ni+2]	> 200 µM	72.4 µM	–
O=c1c(SCc2ccc(Cl)cc2)c(SCc2ccc(Cl)cc2)cnn1-c1ccccc1	> 14.8 µM	3.98 µM	–
Nc1nc(SCCc2ccccc2)nc2nc3c(c(-c4ccccc4)c12)CCCC3	> 200 µM	> 200 µM	–
CC1=CC(C)S(=O)(=O)C1 (stereo unspecified)	> 200 µM	> 200 µM	–
COc1ccccc1NC(=O)C(=O)C1C(=O)Nc2ccccc2S1=O (stereo unspecified)	–	–	inactive
Nc1cccc2c1C1=NNC(=O)CC1C2 (stereo unspecified)	–	–	inactive
